Measured values from patent US5523403A, “Tropone-substituted phenyloxazolidinone antibacterial agents” (The Upjohn Company, priority 1995, dated 1996).
Values after ≈ are worked out from the molar mass of the structure shown.

Experiments:
[1] = test system: Streptococcus pyogenes UC ® 152; assay: in vitro antibacterial activity, Minimum Inhibitory Concentration, Streptococcus pyogenes; conditions: Streptococcus pyogenes, UC152, read-out: Minimum Inhibitory Concentration
[2] = test system: Staphylococcus aureus UC ® 9213; assay: in vitro antibacterial activity, Minimum Inhibitory Concentration, Staphylococcus aureus; conditions: Staphylococcus aureus, UC9213, read-out: Minimum Inhibitory Concentration

Row | MIC [1] [µg/mL] | MIC [2] [µg/mL] | SMILES
1 | 0.5 (≈ 1.18 µM) | 2 (≈ 4.72 µM) | CC(=O)NCC1CN(c2ccc(-c3ccc(N4CCOCC4)c(=O)cc3)cc2)C(=O)O1 (racemic) [Compound 5, (±)-N-[[3-[4-[4-(4-morpholino)-5-oxo1,3,6-cycloheptatrien-1-yl]phenyl]2oxo5-oxazolidinyl]methyl]-acetamide]
2 | 0.5 (≈ 1.11 µM) | 4 (≈ 8.88 µM) | CC(=O)NCC1CN(c2ccc(-c3ccc(N4CCN(C=O)CC4)c(=O)cc3)cc2)C(=O)O1 (racemic) [Compound 7, (±)-N-[[3-[4-[4-(4-formyl-1-piperazinyl)-5-oxo-1,3,6-cycloheptatrien-1-yl]phenyl]-2-oxo-5-oxazolidinyl]methyl]-acetamide]
3 | 1 (≈ 2.45 µM) | 4 (≈ 9.82 µM) | CC(=O)NCC1CN(c2ccc(-c3ccc(N4CCCC4)c(=O)cc3)cc2)C(=O)O1 (racemic) [Compound 9, (±)-N-[[3-[4-[4-(1-pyrrolidinyl)-5-oxo-1,3,6-cycloheptatrien-1-yl]]phenyl]-2-oxo-5-oxazolidinyl]methyl]-acetamide]
4 | 0.12 (≈ 0.275 µM) | 2 (≈ 4.58 µM) | CC(=O)NCC1CN(c2ccc(-c3ccc(N4CCN(C)CC4)c(=O)cc3)cc2)C(=O)O1 (racemic) [Compound 10, (±)-N-[[3-[4-[4-(4-methyl-1-piperazinyl)-5-oxo-1,3,6-cycloheptatrien-1-yl]phenyl]-2-oxo-5-oxazolidinyl]methyl]-acetamide]
5 | 0.25 (≈ 0.592 µM) | 8 (≈ 18.9 µM) | CC(=O)NCC1CN(c2ccc(-c3ccc(N4CCNCC4)c(=O)cc3)cc2)C(=O)O1 (racemic) [Compound 12, (±)-N-[[3-[4-[4-(1-piperazinyl)-5-oxo-1,3,6-cycloheptatrien-1-yl]phenyl]-2-oxo-5-oxazolidinyl]methyl]-acetamide]
6 | 1 (≈ 2.37 µM) | 2 (≈ 4.74 µM) | CC(=O)NCC1CN(c2ccc(-c3ccc(N4CCCCC4)c(=O)cc3)cc2)C(=O)O1 (racemic) [Compound 15, (±)-N-[[3-[4-[4-(1-piperidinyl)-5-oxo-1,3,6-cycloheptatrien-1-yl]phenyl]-2-oxo-5-oxazolidinyl]methyl]-acetamide]
7 | 0.25 (≈ 0.573 µM) | 8 (≈ 18.3 µM) | CC(=O)NCC1CN(c2ccc(-c3ccc(N4CCNC(C)C4)c(=O)cc3)cc2)C(=O)O1 (racemic) [Compound 17, (±)-N-[[3-[4-[4-(3-methyl-1-piperazinyl)-5-oxo-1,3,6-cycloheptatrien-1-yl]phenyl]2-oxo-5-oxazolidinyl]methyl]-acetamide]
8 | 1 (≈ 2.36 µM) | 4 (≈ 9.45 µM) | CC(=O)NCC1CN(c2ccc(-c3ccc(N4CCC(O)C4)c(=O)cc3)cc2)C(=O)O1 (racemic) [Compound 18, (±)-N-[[3-[4-[4-(3-hydroxy-1-pyrrolidinyl)-5-oxo-1,3,6-cycloheptatrien-1-yl]phenyl]-2-oxo-5oxazolidinyl]methyl]-acetamide]

The next lines start with the compound.

Row | SMILES | MIC [1] [µg/mL] | MIC [2] [µg/mL]
9 | COc1ccc(-c2ccc(N3CC(CNC(C)=O)OC3=O)cc2)ccc1=O (racemic) [Compound 1, (±)-N[[3-[4-(4-methoxy-5-oxo-,1,3,6-cycloheptatrien-yl)phenyl]-2-oxazolidinyl]methyl-acetamide] | 0.25 (≈ 0.679 µM) | 2 (≈ 5.43 µM)
10 | CCN(CC)c1ccc(-c2ccc(N3CC(CNC(C)=O)OC3=O)cc2)ccc1=O (racemic) [Compound 2, (±)-N[[3-[4-(4-diethylamino-5-oxo-1,3,6-cycloheptatrien-1-yl)phenyl]-2-oxo-5-oxazolidinyl]methyl]-acetamide] | 1 (≈ 2.44 µM) | 4 (≈ 9.77 µM)
11 | CC(=O)NCC1CN(c2ccc(-c3ccc(NCc4ccccc4)c(=O)cc3)cc2)C(=O)O1 (racemic) [Compound 3, (±)-Acetamide, N-[[2-oxo-3-[4-[5-oxo-4-[(phenylmethyl)amino]-1,3,6-cycloheptatrien-1-yl]phenyl]-5-oxazolidinyl]methyl]] | 4 (≈ 9.02 µM) | > 64
12 | CC(=O)NCC1CN(c2ccc(-c3ccc(NCCO)c(=O)cc3)cc2)C(=O)O1 (racemic) [Compound 4, (±)-N-[[3-[4-[4-[(2-hydroxyethyl)amino]-5-oxo1,3,6-cycloheptatrien-1-yl]phenyl]-2oxo-5-oxazolidinyl]methyl-acetamide] | 0.5 (≈ 1.26 µM) | 4 (≈ 10.1 µM)
13 | CC(=O)NCC1CN(c2ccc(-c3ccc(NC4CC4)c(=O)cc3)cc2)C(=O)O1 (racemic) [Compound 6, (±)-N-[[3-[4-(4-cyclopropylamino-5-oxo-1,3,6-cycloheptatrien-1-yl)phenyl]-2-oxo-5-oxazolidinyl]methyl]-acetamide] | 0.5 (≈ 1.27 µM) | 2 (≈ 5.08 µM)
14 | C=CCNc1ccc(-c2ccc(N3CC(CNC(C)=O)OC3=O)cc2)ccc1=O (racemic) [Compound 8, (±)-N-[[3-[4-[4-(2-propenylamino)5-oxo-1,3,6-cycloheptatrien-1-yl]phenyl]-2-oxo-5-oxazolidinyl]methyl]-acetamide] | 0.5 (≈ 1.27 µM) | 2 (≈ 5.08 µM)
15 | CC(=O)NCC1CN(c2ccc(-c3ccc(NC4CCCC4)c(=O)cc3)cc2)C(=O)O1 (racemic) [Compound 11, (±)-N-[[3-[4-(4-cyclopentylamino-5-oxo-1,3,6-cycloheptatrien-1-yl)phenyl]-2-oxo-5-oxazolidinyl]methyl]-acetamide] | 1 (≈ 2.37 µM) | 4 (≈ 9.49 µM)
16 | CCCCNc1ccc(-c2ccc(N3CC(CNC(C)=O)OC3=O)cc2)ccc1=O (racemic) [Compound 13, (±)-N-[[3-[4-(4-butylamino-5-oxo-1,3,6-cycloheptatrien-1-yl)phenyl]-2-oxo-5-oxazolidinyl]methyl]-acetamide] | 0.5 (≈ 1.22 µM) | 2 (≈ 4.88 µM)
17 | CC(=O)NCC1CN(c2ccc(-c3ccc(N4C[C@@H](C)N[C@@H](C)C4)c(=O)cc3)cc2)C(=O)O1 (mixture of isomers) [Compound 14, (±)-N-[[3-[4-[4-(cis-3,5-dimethyl-1-piperazinyl)-5-oxo-1,3,6-cycloheptatrien-1-yl]phenyl]-2-oxo5-oxazolidinyl]methyl]-acetamide] | 0.5 (≈ 1.11 µM) | 8 (≈ 17.8 µM)
18 | COc1ccc(-c2ccc(N3CC(CNC(C)=O)OC3=O)cc2F)ccc1=O (racemic) [Compound 16, (±)-N-[[3-[3-fluoro-4-(4-methoxy-5-oxo-1,3,6-cycloheptatrien-1-yl)phenyl]-2-oxo-5-oxazolidinyl]methyl]-acetamide] | 0.25 (≈ 0.647 µM) | 1 (≈ 2.59 µM)
19 | COc1cccc(-c2ccc(N3CC(CNC(C)=O)OC3=O)cc2)cc1=O (racemic) [Compound 20, (±)-N-[[3-[4-[4-methoxy-3-oxo-1,4,6-cycloheptatrien-1-yl)phenyl]-2-oxo-5-oxazolidinyl]methyl]-acetamide] | 0.5 (≈ 1.36 µM) | 4 (≈ 10.9 µM)
20 | COc1cc(-c2ccc(N3CC(CNC(C)=O)OC3=O)cc2)cccc1=O (racemic) [Compound 21, (±)-N-[[3-[4-(6-methoxy-5-oxo-1,3,6-cycloheptatrien-1-yl]phenyl]-2-oxo5-oxazolidinyl]methyl]-acetamide] | 8 (≈ 21.7 µM) | 64 (≈ 174 µM)
21 | CCOc1ccc(-c2ccc(N3CC(CNC(C)=O)OC3=O)cc2)ccc1=O (racemic) [Compound 22, (±)-N-[[3-[4-(4-ethoxy-5-oxo-1,3,6-cycloheptatrien-1-yl]phenyl]-2-oxo5-oxazolidinyl]methyl]-acetamide] | 0.5 (≈ 1.31 µM) | 4 (≈ 10.5 µM)
22 | COc1ccc(-c2ccc(N3C[C@H](CNC(C)=O)OC3=O)cc2)ccc1=O [Compound 28, (S)-N-[[3-[4-methoxy-5-oxo-1,3,6-cycloheptatrien-yl)phenyl-2-oxo-5-oxazolidinyl)methyl]-acetamide] |  | 1 (≈ 2.71 µM)
